Experimental data published in patent US20070190554A1, “Novel binding site for retigabine on KCNQ5” (priority 2006, published 2007).
Entries after “also recorded” stand apart in the source; their conditions may differ. Read-outs that look alike come from different tables or passages of the source.

Columns and labels:
[1] = target: KCNQ5 containing an S5-S6 transmembrane domain from KCNQ1 (Homo sapiens, UniProt Q9NR82, A261I/A269T/A329S/A332S/F282Y/G330C/G335A/I307V/INS291VNESG/K264Q/K293V/L283F/L309V/L320Q/L323V/L326T/L327I/L333V/L334F/N292R/R325K/S263R/S296G/S328A/T297S/T306V/T318V/V276G/V287A/W270L/Y260F); settings: 50 μM retigabine
Sequence of KCNQ5 containing an S5-S6 transmembrane domain from KCNQ1 (Q9NR82 other isoform, or with tags, fused parts or gaps with the stated changes): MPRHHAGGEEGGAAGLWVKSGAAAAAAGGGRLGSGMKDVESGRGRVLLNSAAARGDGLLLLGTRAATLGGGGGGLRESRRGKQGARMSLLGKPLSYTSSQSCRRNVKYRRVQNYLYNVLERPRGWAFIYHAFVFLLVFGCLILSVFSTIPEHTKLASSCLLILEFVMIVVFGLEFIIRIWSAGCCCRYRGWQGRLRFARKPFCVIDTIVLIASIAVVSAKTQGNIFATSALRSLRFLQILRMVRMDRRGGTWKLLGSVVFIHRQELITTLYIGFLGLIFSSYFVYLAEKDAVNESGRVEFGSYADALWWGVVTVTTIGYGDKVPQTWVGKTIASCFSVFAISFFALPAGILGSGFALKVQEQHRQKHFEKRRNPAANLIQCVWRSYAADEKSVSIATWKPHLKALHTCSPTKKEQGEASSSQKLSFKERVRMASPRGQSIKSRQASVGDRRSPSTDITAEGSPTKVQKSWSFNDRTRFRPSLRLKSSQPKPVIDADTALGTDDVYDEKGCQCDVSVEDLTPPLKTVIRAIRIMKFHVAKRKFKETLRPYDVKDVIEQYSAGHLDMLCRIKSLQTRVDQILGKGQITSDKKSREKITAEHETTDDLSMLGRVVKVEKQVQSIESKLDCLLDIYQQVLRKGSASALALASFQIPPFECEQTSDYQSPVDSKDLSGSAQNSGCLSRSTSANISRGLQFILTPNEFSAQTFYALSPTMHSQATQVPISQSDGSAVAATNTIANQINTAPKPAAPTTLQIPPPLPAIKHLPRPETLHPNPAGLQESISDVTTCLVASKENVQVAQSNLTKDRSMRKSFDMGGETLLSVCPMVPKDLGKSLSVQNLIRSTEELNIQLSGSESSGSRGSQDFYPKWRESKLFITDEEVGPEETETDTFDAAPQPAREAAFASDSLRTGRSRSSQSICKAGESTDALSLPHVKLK
Source text: Differences were considered to be significant at P<0.05.
All mutations were confirmed by DNA sequencing.

KCNQ5(W270L) = target: T1, KCNQ5(W270L) (Homo sapiens, UniProt Q9NR82, W270L); test: Two-electrode voltage clamp in Xenopus oocytes, S5 point mutant KCNQ5(W270L); format: cell-based; settings: 50 μM retigabine; FIG. 3 bottom panel
T1 construct: expressed in transfected cells; host or cells: Xenopus oocytes injected with cRNA
T1 sequence (Q9NR82 whole entry W270L): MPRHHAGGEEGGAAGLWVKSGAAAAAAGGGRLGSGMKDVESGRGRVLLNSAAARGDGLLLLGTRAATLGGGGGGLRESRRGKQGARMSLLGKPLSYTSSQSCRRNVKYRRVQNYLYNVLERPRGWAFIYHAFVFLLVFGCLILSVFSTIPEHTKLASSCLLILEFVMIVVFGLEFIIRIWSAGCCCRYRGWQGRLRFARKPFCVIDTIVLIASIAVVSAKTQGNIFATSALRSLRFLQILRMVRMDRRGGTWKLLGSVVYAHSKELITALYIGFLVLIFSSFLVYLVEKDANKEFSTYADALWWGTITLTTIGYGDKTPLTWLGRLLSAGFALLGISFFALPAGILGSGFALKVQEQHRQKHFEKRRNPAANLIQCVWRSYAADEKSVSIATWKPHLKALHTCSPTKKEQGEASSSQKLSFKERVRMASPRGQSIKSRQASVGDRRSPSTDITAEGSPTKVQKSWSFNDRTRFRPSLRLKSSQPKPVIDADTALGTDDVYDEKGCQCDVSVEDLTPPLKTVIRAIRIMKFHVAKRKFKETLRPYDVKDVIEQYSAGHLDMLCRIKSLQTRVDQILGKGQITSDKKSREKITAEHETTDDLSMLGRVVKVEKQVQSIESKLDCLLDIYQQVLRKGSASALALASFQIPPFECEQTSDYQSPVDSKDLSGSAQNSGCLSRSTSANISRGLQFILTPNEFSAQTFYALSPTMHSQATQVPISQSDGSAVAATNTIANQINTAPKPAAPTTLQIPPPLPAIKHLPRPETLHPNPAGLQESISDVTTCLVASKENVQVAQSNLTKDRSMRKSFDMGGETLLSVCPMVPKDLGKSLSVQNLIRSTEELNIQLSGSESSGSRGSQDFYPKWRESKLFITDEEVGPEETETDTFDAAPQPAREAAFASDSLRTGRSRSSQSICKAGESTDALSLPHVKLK
Description: (§1) FIG. 3 Mutagenesis analysis of S5 domain in KCNQ5. Sequence alignment of all five members in KCNQ family is shown on the top. The most diverse residues between KCNQ1 and the other members are highlighted in bold case and the corresponding residues in KCNQ5 were individually mutated to their counterparts in KCNQ1. Then each mutant with single mutation was tested with 50 μM retigabine and the fold increase (IΔ/I0) in current amplitude was plotted in the graph on bottom. In all mutants, n equals 6.
(§2) The gene sequences were confirmed by DNA sequencing. […] Electrophysiological recording was performed 3-7 days after injection.
(§3) The S5 domains of all five KCNQ members were sequence aligned and searched for unique amino acid residues that might account for the lack of KCNQ1's response to retigabine. As shown in FIG. 3 upper panel, there are ten unmatched residues between KCNQ1 and KCNQ5. Seven of them highlighted in FIG. 3 may be unique for KCNQ1. Therefore, mutations in KCNQ5 were generated for each of 7 residues modified individually to the corresponding in KCNQ1. One mutant, KCNQ5(F282Y) lost its functionality when expressed in oocytes. […] Retigabine's effect on each of these mutants was then tested.

KCNQ5(A269T) = target: T2, KCNQ5(A269T) (Homo sapiens, UniProt Q9NR82, A269T); test: Two-electrode voltage clamp in Xenopus oocytes, S5 point mutant KCNQ5(A269T); format: cell-based; settings: 50 μM retigabine; FIG. 3 bottom panel
T2 construct: mutations in KCNQ5 were generated for each of 7 residues modified individually to the corresponding in KCNQ1; expressed in transfected cells; host or cells: Xenopus oocytes injected with cRNA
T2 sequence (Q9NR82 whole entry A269T): as the sequence (Q9NR82 whole entry W270L) above, with A269T, L270W counted along it
Description: as §1, §2, §3

[2] = target: KCNQ5 containing an S5 transmembrane domain from KCNQ1 (Homo sapiens, UniProt Q9NR82, A261I/A269T/F282Y/K264Q/L283F/S263R/V276G/V287A/W270L/Y260F); settings: 50 μM retigabine
Sequence of KCNQ5 containing an S5 transmembrane domain from KCNQ1 (Q9NR82 whole entry Y260F/A261I/S263R/K264Q/A269T/W270L/V276G/F282Y/L283F/V287A, the tested form may be a part): as the sequence (Q9NR82 whole entry W270L) above, with Y260F, A261I, S263R, K264Q, A269T, V276G, F282Y, L283F, V287A counted along it
Description: Expression of KCNQ5 and KCNQ1 channels into Xenopus oocytes—Human KCNQ5 and KCNQ1 genes were cloned into a pKSM vector that has been engineered specifically for oocyte expression. […] Xenopus oocytes were injected with 46 nl solution containing approximately 9.2 ng cRNA using a Drumond Nanojet oocyte injector (Drummond Scientific Co., Broomall, Pa.). Electrophysiological recording was performed 3-7 days after injection.
Electrophysiology—All experiments were performed at room temperature (22-23° C.) using conventional oocyte two-electrode voltage clamp recording (TEVC). The recording electrodes were pulled from 1.5 mm glass pipette using a Sutter P-97 micropipette puller (Sutter Instrument, Novato, Calif.) and filled with 3M KCl. The pipette tip was carefully broken off to acquire the electrode resistance at 0.5-1 Mohm. A Dagan CA-1 amplifier (Dagan Corporation, Minneapolis Minn.) was used and the holding potential was clamped at −100 mV. To test voltage dependence of channel activation, a series of depolarized voltage pulses was applied. To observe the time course of retigabine's effect, a single (3 sec) voltage pulse at 40 mV was applied repeatedly at 15 sec intervals. A HEKA computer interface (HEKA Elektronik, Lambrecht, Germany) with Pulse 8.5 software was used to control the amplifier and digitized the data for analysis. Solutions and Chemicals—ND96 solution containing (in mM) NaCl, 96, KCl, 2, CaCl2, 1.8, MgCl2, 1, HEPES, 10 was used for oocyte incubation and recording. Retigabine was made as a stock solution in DMSO at 50 mM and diluted into desired concentrations just before application in experiments. […] In all experiments, DMSO was used less than 0.4%.
Compounds were applied to the cells via a fast bath perfusion system (ALA Scientific Instruments, Westbury, N.Y.), and a bath solution change was completed within 10 seconds.
Data analysis—Current amplitude was measured online using HEKA Pulsefit 8.5 software. To acquire channel conductance from macroscopic current, the K^+ reversal potential was approximated to be −80 mV in ND96 solution and the following equation was applied: G=I/(V+80), where G is the whole oocyte conductance, I is the whole oocyte current, and V is the voltage used to induce the current. Data were expressed as mean±SE, and the paired student t test was performed. Differences were considered to be significant at P<0.05.
To further dissect the action site of retigabine, the S5-S6 transmembrane domain from KCNQ1 was divided into two parts, the S5 transmembrane domain and the S6 transmembrane domain (with linker), and the corresponding chimeric channels of KCNQ5 contained S5 transmembrane domain or S6 transmembrane domain from KCNQ1.

KCNQ1 wild-type = KCNQ1 wild-type (Homo sapiens, UniProt P51787); settings: FIG. 4A
Source text: The steady state amplitudes of the currents evoked by a series of depolarized voltage pulses from −100 to 80 mV in 10 mV increment were normalized to the level evoked by the membrane potential of 80 mV in the control group. The holding potential was −100 mV.
Expression of KCNQ5 and KCNQ1 channels into Xenopus oocytes—Human KCNQ5 and KCNQ1 genes were cloned into a pKSM vector that has been engineered specifically for oocyte expression. The gene sequences were confirmed by DNA sequencing. […] The constructs were linearized by XbaI restriction enzyme (NEB, Beverly, Mass.). In vitro transcription was performed with an mMESSAGE mMACHINE® kit (Ambion, Austin, Tex.) and the cRNA was purified by phenol extraction. Xenopus oocytes were injected with 46 nl solution containing approximately 9.2 ng cRNA using a Drumond Nanojet oocyte injector (Drummond Scientific Co., Broomall, Pa.). Electrophysiological recording was performed 3-7 days after injection.
Electrophysiology—All experiments were performed at room temperature (22-23° C.) using conventional oocyte two-electrode voltage clamp recording (TEVC). […]
Data analysis—Current amplitude was measured online using HEKA Pulsefit 8.5 software. […] Data were expressed as mean±SE, and the paired student t test was performed. […]

Wild type KCNQ5 = Wild type KCNQ5 (Homo sapiens, UniProt Q9NR82); settings: cited from earlier work
Sequence of Wild type KCNQ5 (Q9NR82 whole entry): as the sequence (Q9NR82 whole entry W270L) above, with L270W counted along it

rat KCNQ5 polypeptide = rat KCNQ5 polypeptide (Rattus norvegicus, UniProt F1LY25); settings: Jensen et al. 2005; cited from earlier work
Sequence of rat KCNQ5 polypeptide (F1LY25 1-951): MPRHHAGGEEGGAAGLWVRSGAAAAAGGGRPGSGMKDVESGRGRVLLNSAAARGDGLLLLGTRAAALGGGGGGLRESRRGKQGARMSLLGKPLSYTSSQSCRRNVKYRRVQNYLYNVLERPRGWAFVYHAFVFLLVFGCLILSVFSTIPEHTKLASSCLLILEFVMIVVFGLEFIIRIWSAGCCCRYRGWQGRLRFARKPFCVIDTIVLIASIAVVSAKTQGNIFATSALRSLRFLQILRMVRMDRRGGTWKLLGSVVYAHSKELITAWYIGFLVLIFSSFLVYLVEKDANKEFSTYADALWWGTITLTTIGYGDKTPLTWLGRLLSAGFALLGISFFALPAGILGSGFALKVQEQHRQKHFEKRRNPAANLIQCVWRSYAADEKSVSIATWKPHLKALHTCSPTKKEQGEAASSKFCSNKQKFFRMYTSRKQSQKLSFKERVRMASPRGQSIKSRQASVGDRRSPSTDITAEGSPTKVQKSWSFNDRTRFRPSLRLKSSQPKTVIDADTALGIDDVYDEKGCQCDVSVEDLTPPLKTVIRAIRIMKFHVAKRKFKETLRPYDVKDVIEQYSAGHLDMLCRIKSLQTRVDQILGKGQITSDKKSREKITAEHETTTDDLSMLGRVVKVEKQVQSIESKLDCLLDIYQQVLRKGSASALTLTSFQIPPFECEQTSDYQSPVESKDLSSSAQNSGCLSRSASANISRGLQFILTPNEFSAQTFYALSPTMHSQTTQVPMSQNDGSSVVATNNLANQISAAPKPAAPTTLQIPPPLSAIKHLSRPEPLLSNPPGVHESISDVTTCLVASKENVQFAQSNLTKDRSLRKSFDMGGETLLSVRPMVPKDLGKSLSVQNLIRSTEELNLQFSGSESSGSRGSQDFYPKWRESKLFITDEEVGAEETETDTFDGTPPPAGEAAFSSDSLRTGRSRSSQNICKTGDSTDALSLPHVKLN

mouse KCNQ5 polypeptide = mouse KCNQ5 polypeptide (Mus musculus, UniProt Q9JK45); settings: Jensen et al. 2005; cited from earlier work
Sequence of mouse KCNQ5 polypeptide (Q9JK45 whole entry): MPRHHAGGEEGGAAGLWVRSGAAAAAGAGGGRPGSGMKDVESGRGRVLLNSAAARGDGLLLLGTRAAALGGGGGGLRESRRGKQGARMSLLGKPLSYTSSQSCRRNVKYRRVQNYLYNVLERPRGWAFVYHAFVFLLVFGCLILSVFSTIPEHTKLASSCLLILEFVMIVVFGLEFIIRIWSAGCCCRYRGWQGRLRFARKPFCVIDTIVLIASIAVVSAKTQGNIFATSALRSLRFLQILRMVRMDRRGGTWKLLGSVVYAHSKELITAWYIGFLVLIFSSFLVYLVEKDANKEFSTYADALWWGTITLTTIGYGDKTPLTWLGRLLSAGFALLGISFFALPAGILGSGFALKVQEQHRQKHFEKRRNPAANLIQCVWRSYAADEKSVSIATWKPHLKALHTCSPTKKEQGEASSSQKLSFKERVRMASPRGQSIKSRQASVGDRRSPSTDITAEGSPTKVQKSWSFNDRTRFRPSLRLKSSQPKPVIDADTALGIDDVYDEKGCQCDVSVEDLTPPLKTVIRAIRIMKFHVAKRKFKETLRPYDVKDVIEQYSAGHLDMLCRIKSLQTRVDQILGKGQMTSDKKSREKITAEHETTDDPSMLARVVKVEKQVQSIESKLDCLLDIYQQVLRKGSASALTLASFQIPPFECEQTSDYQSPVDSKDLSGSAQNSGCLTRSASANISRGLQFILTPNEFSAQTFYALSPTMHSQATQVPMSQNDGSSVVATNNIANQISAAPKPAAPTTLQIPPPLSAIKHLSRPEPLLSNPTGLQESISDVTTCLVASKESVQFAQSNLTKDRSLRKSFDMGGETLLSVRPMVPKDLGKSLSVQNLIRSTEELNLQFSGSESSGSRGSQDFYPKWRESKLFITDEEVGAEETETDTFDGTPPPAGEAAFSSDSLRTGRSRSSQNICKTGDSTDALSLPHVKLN

KCNQ1 = KCNQ1 (Homo sapiens, UniProt P51787); settings: background statement; cited from earlier work
KCNQ1(L171W) = target: T3, KCNQ1(L171W) (Homo sapiens, UniProt P51787, L266W); test: Two-electrode voltage clamp in Xenopus oocytes, KCNQ1(L171W)
T3 sequence (P51787 with tags, fused parts or gaps L266W): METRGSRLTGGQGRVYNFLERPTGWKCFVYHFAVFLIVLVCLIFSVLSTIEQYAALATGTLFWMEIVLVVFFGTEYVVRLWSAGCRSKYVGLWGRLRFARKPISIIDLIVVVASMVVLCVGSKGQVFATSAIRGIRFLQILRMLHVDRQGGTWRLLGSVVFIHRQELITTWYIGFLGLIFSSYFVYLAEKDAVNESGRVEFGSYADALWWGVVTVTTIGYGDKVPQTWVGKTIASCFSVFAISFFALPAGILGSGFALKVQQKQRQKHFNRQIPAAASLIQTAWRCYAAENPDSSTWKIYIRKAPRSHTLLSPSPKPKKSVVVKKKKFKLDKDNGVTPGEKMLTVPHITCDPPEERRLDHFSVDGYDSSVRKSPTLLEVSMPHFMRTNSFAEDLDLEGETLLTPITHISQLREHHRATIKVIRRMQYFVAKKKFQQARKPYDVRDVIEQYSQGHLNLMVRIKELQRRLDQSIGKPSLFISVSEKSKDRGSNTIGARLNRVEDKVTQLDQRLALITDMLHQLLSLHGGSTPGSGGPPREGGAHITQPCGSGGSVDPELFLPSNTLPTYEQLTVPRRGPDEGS

CCOC(=O)Nc1ccc(NCc2ccc(F)cc2)cc1N [retigabine, N-(2-amino-4-(4-fluorobenzylamino)-phenyl)carbamic acid ethyl ester]
current (I)-voltage relationship in the absence vs presence of retigabine ([1]; 5 min after the application, p>0.05): No significant difference
change of current amplitude and voltage dependent activation ([1]; 5 min application period, FIG. 1C): neither current amplitude nor voltage dependent activation changed significantly
effect on channel activities ([1]; oocytes, FIGS. 1A and 1B): no longer augmented the channel activities
response to retigabine (fold increase IΔ/I0 in current amplitude) (KCNQ5(W270L)): significantly less response; also recorded: completely lost the response
response to retigabine (fold increase IΔ/I0 in current amplitude) (KCNQ5(A269T)): significantly less response
channel current induced by depolarization to 40 mV ([2]; 5 min of bath application): remained unchanged
current amplitude and voltage dependence of the currents (I-V curves before and after treatment) ([2]; FIG. 2A right panel, FIG. 2C): Neither current amplitude nor voltage dependence of the currents was modified
effect on the mutant channel ([2]; FIG. 2B): no longer had effect
current (I)-voltage relationship in the absence vs presence of retigabine ([2]; p>0.05): No significant difference
response of channel current (KCNQ1 wild-type; 50 μM retigabine): no significant response
response of channel current (KCNQ1 wild-type; 200 μM retigabine): slightly inhibitory response
responsiveness of the channel to retigabine (Wild type KCNQ5; Wickendon et al. 2001): responsive
opening of KCNQ channels (Wild type KCNQ5; background statement): open
sensitivity of the channel to retigabine (rat KCNQ5 polypeptide): sensitive
sensitivity of the channel to retigabine (mouse KCNQ5 polypeptide): sensitive
enhancing effect on the channel (KCNQ1): no enhancing effect
steady state current amplitude (KCNQ1(L171W); 50 μM retigabine, FIG. 4B): clearly reduced
voltage dependence of channel activation (KCNQ1(L171W); FIG. 4D and inset (200 μM)): modified the voltage dependence of channel activation
activation kinetics of the current (KCNQ1(L171W); current evoked at 80 mV, FIG. 4C): from a single to a double exponential activation time course
kind of effect on the channel (activated or blocked) (KCNQ1(L171W); oocytes, TEVC): blocked
inhibition at 200 µM (KCNQ1(L171W); read-out: inhibition of the steady-state current): 62.5%
